Assays:
Italian ryegrass = test: Test Example 5: herbicidal effect by foliage application, plastic box (Table 20, symbol K); type: in vivo, Italian ryegrass (Lolium multiflorum); conditions: foliage application
How it was run: (§1)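 Sow seeds spot-wise in sterilized diluvial soil; cover with ~1.5 cm soil. Grow 14 days in greenhouse, 25° C. to 30° C. Spray foliage with emulsion diluted to predetermined amount. Rate effect after 3 weeks.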

wild oat = test: Test Example 5: herbicidal effect by foliage application, plastic box (Table 20, symbol I); type: in vivo, wild oat (Avena fatua); conditions: foliage application
How it was run: as §1

barnyard grass [1] = test: Test Example 5: herbicidal effect by foliage application, plastic box (Table 20, symbol H); type: in vivo, barnyard grass (Echinochloa crus-galli); conditions: foliage application
How it was run: as §1

Chinese sprangletop = test: Test Example 3: herbicidal effect by foliage application, Wagner pot (Table 18, symbol D); type: in vivo, chinese sprangletop (Leptochloa chinensis); conditions: 320 g/ha
How it was run: (§2)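 Plants were sown in alluvial soil held under 0.1–0.5 cm standing water and grown 14 days in a greenhouse at 25–30 °C. An emulsifiable formulation, water-diluted to the set dose, was then sprayed onto the foliage, and effects were scored three weeks later using previously defined criteria.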

blackgrass = test: Test Example 5: herbicidal effect by foliage application, plastic box (Table 20, symbol J); type: in vivo, blackgrass (Alopecurus myosuroides); conditions: foliage application
How it was run: as §1

chickweed = test: Test Example 5: herbicidal effect by foliage application, plastic box (Table 20, symbol P); type: in vivo, common chickweed (Stellaria media); conditions: foliage application
How it was run: as §1

persian speedwell = test: Test Example 5: herbicidal effect by foliage application, plastic box (Table 20, symbol R); type: in vivo, Persian speedwell (Veronica persica); conditions: foliage application
How it was run: as §1

velvetleaf = test: Test Example 5: herbicidal effect by foliage application, plastic box (Table 20, symbol M); type: in vivo, velvetleaf (Abutilon theophrasti); conditions: foliage application
How it was run: as §1

southern crabgrass = test: Test Example 5: herbicidal effect by foliage application, plastic box (Table 20, symbol F); type: in vivo, southern crabgrass (Digitaria ciliaris); conditions: foliage application
How it was run: as §1

false cleavers = test: Test Example 5: herbicidal effect by foliage application, plastic box (Table 20, symbol Q); type: in vivo, false cleavers (Galium spurium); conditions: foliage application
How it was run: as §1

redroot pigweed = test: Test Example 5: herbicidal effect by foliage application, plastic box (Table 20, symbol N); type: in vivo, redroot pigweed (Amaranthus retroflexus); conditions: foliage application
How it was run: as §1

windgrass = test: Test Example 5: herbicidal effect by foliage application, plastic box (Table 20, symbol L); type: in vivo, windgrass (Apera spica-venti); conditions: foliage application
How it was run: as §1

green foxtail = test: Test Example 5: herbicidal effect by foliage application, plastic box (Table 20, symbol G); type: in vivo, green foxtail (Setaria viridis); conditions: foliage application
How it was run: as §1

lambsquarters = test: Test Example 5: herbicidal effect by foliage application, plastic box (Table 20, symbol O); type: in vivo, lambsquarters (Chenopodium album); conditions: foliage application
How it was run: as §1

rice flat sedge = test: Test Example 3: herbicidal effect by foliage application, Wagner pot (Table 18, symbol E); type: in vivo, rice flat sedge (Cyperus iria); conditions: 320 g/ha
How it was run: as §2

barnyard grass [2] = test: Test Example 3: herbicidal effect by foliage application, Wagner pot (Table 18, symbol H); type: in vivo, barnyard grass (Echinochloa crus-galli); conditions: 320 g/ha
How it was run: as §2

[3] = 320 g/ha, three weeks after application
[4] = AAH 80 g/ha, three weeks after application
[5] = 320 g/ha, evaluated three weeks after application

| Structure (SMILES) | herbicidal effect grade, K: Italian ryegrass (Italian ryegrass; [3]) | herbicidal effect grade, I: wild oat (wild oat; [3]) | herbicidal effect grade, H: barnyard grass (barnyard grass [1]; [3]) | herbicidal effect on D (Chinese sprangletop), rating 0-5 (Chinese sprangletop) | herbicidal effect grade, J: blackgrass (blackgrass; [3]) | herbicidal effect grade, P: chickweed (chickweed; [3]) | herbicidal effect grade, R: persian speedwell (persian speedwell; [3]) | herbicidal effect grade, M: velvetleaf (velvetleaf; [3]) | herbicidal effect grade, F: southern crabgrass (southern crabgrass; [3]) | herbicidal effect grade, Q: false cleavers (false cleavers; [3]) | herbicidal effect grade, N: redroot pigweed (redroot pigweed; [3]) | herbicidal effect grade, L: windgrass (windgrass; [3]) | herbicidal effect grade, G: green foxtail (green foxtail; [3]) | herbicidal effect grade, O: lambsquarters (lambsquarters; [3]) | herbicidal effect on E (rice flat sedge), rating 0-5 (rice flat sedge) | herbicidal effect on H (barnyard grass), rating 0-5 (barnyard grass [2]) | other results |
| --- | --- | --- | --- | --- | --- | --- | --- | --- | --- | --- | --- | --- | --- | --- | --- | --- | --- |
| Cc1nn(C)c(=O)c(-c2c(-c3ccccc3O)sc3ccccc23)c1O [1-009] | 0 (Herbicidal rate of 5% or less (almost no effect)) | 0 (Herbicidal rate of 5% or less (almost no effect)) | 2 (Herbicidal rate of 20% or more and less than 40%) | 2 (Herbicidal rate of 20% or more and less than 40%) | 0 (Herbicidal rate of 5% or less (almost no effect)) | 4 (Herbicidal rate of 70% or more and less than 90%) | 4 (Herbicidal rate of 70% or more and less than 90%) | 0 (Herbicidal rate of 5% or less (almost no effect)) | 3 (Herbicidal rate of 40% or more and less than 70%) | 0 (Herbicidal rate of 5% or less (almost no effect)) | 0 (Herbicidal rate of 5% or less (almost no effect)) | 0 (Herbicidal rate of 5% or less (almost no effect)) | 3 (Herbicidal rate of 40% or more and less than 70%) | 0 (Herbicidal rate of 5% or less (almost no effect)) | 2 (Herbicidal rate of 20% or more and less than 40%) | 3 (Herbicidal rate of 40% or more and less than 70%) |  |
| Cc1nn(C)c(=O)c(-c2c(-c3ccccc3Oc3ccccc3)sc3ccccc23)c1O [1-033] | 0 (Herbicidal rate of 5% or less (almost no effect)) | 0 (Herbicidal rate of 5% or less (almost no effect)) | 2 (Herbicidal rate of 20% or more and less than 40%) | 0 (Herbicidal rate of 5% or less (almost no effect)) | 0 (Herbicidal rate of 5% or less (almost no effect)) | 1 (Herbicidal rate of 5% or more and less than 20%) | 3 (Herbicidal rate of 40% or more and less than 70%) | 0 (Herbicidal rate of 5% or less (almost no effect)) | 3 (Herbicidal rate of 40% or more and less than 70%) | 4 (Herbicidal rate of 70% or more and less than 90%) | 0 (Herbicidal rate of 5% or less (almost no effect)) | 0 (Herbicidal rate of 5% or less (almost no effect)) | 0 (Herbicidal rate of 5% or less (almost no effect)) | 0 (Herbicidal rate of 5% or less (almost no effect)) | 1 (Herbicidal rate of 5% or more and less than 20%) | 1 (Herbicidal rate of 5% or more and less than 20%) |  |
| CSc1cc(F)ccc1-c1sc2ccccc2c1-c1c(O)c(C)nn(C)c1=O [1-063] | 1 (Herbicidal rate of 5% or more and less than 20%) | 2 (Herbicidal rate of 20% or more and less than 40%) | 0 (Herbicidal rate of 5% or less (almost no effect)) | 0 (Herbicidal rate of 5% or less (almost no effect)) | 3 (Herbicidal rate of 40% or more and less than 70%) | 5 (Herbicidal rate of 90% or more (almost completely withered)) | 4 (Herbicidal rate of 70% or more and less than 90%) | 0 (Herbicidal rate of 5% or less (almost no effect)) | 0 (Herbicidal rate of 5% or less (almost no effect)) | 2 (Herbicidal rate of 20% or more and less than 40%) | 0 (Herbicidal rate of 5% or less (almost no effect)) |  | 0 (Herbicidal rate of 5% or less (almost no effect)) | 3 (Herbicidal rate of 40% or more and less than 70%) | 3 (Herbicidal rate of 40% or more and less than 70%) | 2 (Herbicidal rate of 20% or more and less than 40%) |  |
| CCCC(=O)Oc1c(OC)nn(C)c(=O)c1-c1c(-c2ccc(-c3ccccc3)cc2)sc2ccccc12 [1-167] |  |  |  |  |  |  |  |  |  |  |  |  |  |  |  |  | K: Italian ryegrass, herbicidal effect (Italian ryegrass; [4]): 0 (Herbicidal rate of 5% or less (almost no effect)); I: wild oat, herbicidal effect (wild oat; [4]): 0 (Herbicidal rate of 5% or less (almost no effect)); H: barnyard grass, herbicidal effect (barnyard grass [1]; [4]): 0 (Herbicidal rate of 5% or less (almost no effect)); J: blackgrass, herbicidal effect (blackgrass; [4]): 0 (Herbicidal rate of 5% or less (almost no effect)); P: chickweed, herbicidal effect (chickweed; [4]): 1 (Herbicidal rate of 5% or more and less than 20%); R: persian speedwell, herbicidal effect (persian speedwell; [4]): 3 (Herbicidal rate of 40% or more and less than 70%); M: velvetleaf, herbicidal effect (velvetleaf; [4]): 0 (Herbicidal rate of 5% or less (almost no effect)); F: southern crabgrass, herbicidal effect (southern crabgrass; [4]): 0 (Herbicidal rate of 5% or less (almost no effect)); Q: false cleavers, herbicidal effect (false cleavers; [4]): 3 (Herbicidal rate of 40% or more and less than 70%); N: redroot pigweed, herbicidal effect (redroot pigweed; [4]): 3 (Herbicidal rate of 40% or more and less than 70%); L: windgrass, herbicidal effect (windgrass; [4]): 0 (Herbicidal rate of 5% or less (almost no effect)); G: green foxtail, herbicidal effect (green foxtail; [4]): 0 (Herbicidal rate of 5% or less (almost no effect)); O: lambsquarters, herbicidal effect (lambsquarters; [4]): 2 (Herbicidal rate of 20% or more and less than 40%) |
| CCCC(=O)Oc1c(C)nn(C)c(=O)c1-c1c(-c2ccc(OC)c(C)c2)sc2ccc(Cl)cc12 [2-120] |  |  |  |  |  |  |  |  |  |  |  |  |  |  |  |  | herbicidal effect on K: Italian ryegrass (Italian ryegrass; [5]): 0 (Herbicidal rate of 5% or less (almost no effect)); herbicidal effect on I: wild oat (wild oat; [5]): 0 (Herbicidal rate of 5% or less (almost no effect)); herbicidal effect on H: barnyard grass (barnyard grass [1]; [5]): 0 (Herbicidal rate of 5% or less (almost no effect)); herbicidal effect on J: blackgrass (blackgrass; [5]): 0 (Herbicidal rate of 5% or less (almost no effect)); herbicidal effect on P: chickweed (chickweed; [5]): 5 (Herbicidal rate of 90% or more (almost completely withered)); herbicidal effect on R: persian speedwell (persian speedwell; [5]): 5 (Herbicidal rate of 90% or more (almost completely withered)); herbicidal effect on M: velvetleaf (velvetleaf; [5]): 0 (Herbicidal rate of 5% or less (almost no effect)); herbicidal effect on F: southern crabgrass (southern crabgrass; [5]): 0 (Herbicidal rate of 5% or less (almost no effect)); herbicidal effect on Q: false cleavers (false cleavers; [5]): 4 (Herbicidal rate of 70% or more and less than 90%); herbicidal effect on N: redroot pigweed (redroot pigweed; [5]): 0 (Herbicidal rate of 5% or less (almost no effect)); herbicidal effect on L: windgrass (windgrass; [5]): 0 (Herbicidal rate of 5% or less (almost no effect)); herbicidal effect on G: green foxtail (green foxtail; [5]): 0 (Herbicidal rate of 5% or less (almost no effect)); herbicidal effect on O: lambsquarters (lambsquarters; [5]): 0 (Herbicidal rate of 5% or less (almost no effect)) |
